Measurements: US20150290148A1 (priority 2006, published 2015)
Entries after “also recorded” stand apart in the source; their conditions may differ.

Tests used:
[1] = system: interleukin 10 (IL10) gene; assay: Quantitative real time PCR of hippocampal gene expression after IP injection; assay type: in vivo, Sprague-Dawley rats
[2] = system: interleukin 6 (IL6) gene; assay: as above; assay type: in vivo, Sprague-Dawley rats; conditions: 6 hours after single IP 1.0 mg/kg
[3] = system: BcL2; assay: as above; assay type: in vivo, Sprague-Dawley rats; conditions: 6 hours after single IP 1.0 mg/kg, vs saline
[4] = system: brain derived neurotrophic factor; assay: as above; assay type: in vivo, Sprague-Dawley rats; conditions: 6 hours after single IP 1.0 mg/kg, vs saline
[5] = system: neuropeptide Y; assay: as above; assay type: in vivo, Sprague-Dawley rats; conditions: 6 hours after single IP 1.0 mg/kg, vs saline
[6] = system: neurotrophic factor 3; assay: as above; assay type: in vivo, Sprague-Dawley rats; conditions: 6 hours after single IP 1.0 mg/kg, vs saline
[7] = system: gerbils; assay: Gerbil 5-min 2-VO transient cerebral ischemia, open field activity; assay type: in vivo; conditions: for distance traveled in open field: tested 48 hrs after surgery, 5 min
Method: (§1) Gerbils were anesthetized with isoflurane and core-body temperature maintained at 37-38 C during surgery using a homeothermic blanket (Harvard Apparatus, South Natick, USA). A midline incision was made in the neck and the common carotid arteries were isolated and occluded for 5 min using 85-gm pressure aneurysm clips (ISCH; n=14). A second group of gerbils (SHAM; n=14) underwent the identical procedure except the carotid arteries were not clamped. The incision was sutured and animals received MAP (5 mg/kg; i.p) or equal volume of vehicle (saline; 0 mg) within 2 minutes of reperfusion. Animals were placed in a warmed cage, and observed for 30 minutes. Tylenol (8 mg/ml) was added to drinking water to provide postoperative analgesia.
(§2) Each gerbil was tested 48 hrs following surgery in an open-field apparatus consisting of a metal screen floor 77 cm×77 cm with walls 15 cm in height. Animals were placed in the center region and permitted to explore the novel environment for 5 minutes. Behavioral data (distance traveled, speed) were collected using an automated tracking system (ANY-maze, Stoelting, Ill.) and evaluated separately using ANOVA and the appropriate post hoc test (P<0.05 considered significant). Twenty-one days postsurgery, gerbils were euthanized with CO2 and perfused with phosphate buffered saline followed by 4% paraformaldehyde. Tissue from sham gerbils treated with MAP ([…]) was not evaluated since acute administration of MAP was not expected to histologically alter the hippocampus of this group. Brains were removed and post-fixed for at least 48 hrs prior to collection of 40 μm vibratome sections through the hippocampal region. Sections were mounted on slides and stained with cresyl violet. Damage to the hippocampal CA1 region was evaluated without knowledge of treatment condition by two independent observers using a 4 point rating scale described elsewhere (Babcock et al. 1993). A score of 0 (4-5 compact layers of normal neuronal bodies), 1 (4-5 compact layers with presence of some altered neurons), 2 (spares neuronal bodies with “ghost spaces” and/or glial cells between them), 3 (complete absence or presence of only rare normal neuronal bodies with intense gliosis of the CA1 subfield) was assigned for each animal. Ratings were averaged and evaluated using nonparametric statistics (Kruskal-Wallis and Mann-Whitney U test; P<0.05 considered significant).

[8] = system: hippocampal CA1 region; assay: Gerbil 5-min 2-VO transient cerebral ischemia, histological rating of hippocampal CA1; assay type: in vivo; conditions: for damage to hippocampal CA1 following ischemic insult: MAP 5 mg/kg 1-2 minutes after ischemic insult
Method: as §1, §2

[9] = system: gerbils; assay: Preliminary dose study and observations in gerbils following surgery; assay type: in vivo, gerbil
[10] = system: male Wistar rats; assay: MCA embolic stroke in rats, infarct size by TTC staining; assay type: in vivo, rat
[11] = system: male Wistar rats; assay: MCA embolic stroke in rats, adhesive tape removal test; assay type: in vivo, rat
[12] = system: male Wistar rats; assay: MCA embolic stroke in rats, foot fault; assay type: in vivo, rat; conditions: 1.0 mg/kg/hr, started 0, 6 or 12 hours after stroke
[13] = system: male Wistar rats; assay: Traumatic brain injury (fluid percussion) in rats, tolerability; assay type: in vivo, rat; conditions: 0.5 mg/kg/hr 24 hr IV infusion plus bolus after TBI
Method: Three groups of male Wistar rats/group were used in this study. The animals were given 0 (vehicle control; saline), 0 (sham controls) or 0.5 mg/kg/hr MA via a 24 hr continuous IV infusion starting 3 hr after […] on Day 0. The test article was administered via an Alzet mini-osmotic pump at a rate of 0.0073 mL/hour. The dose concentration of MA loaded in the Alzet pump varied between animals (45.8-65.0 mg/mL), and was based on individual animal body weight on Day 0 and the dose concentration that would yield 0.5 mg/kg/hr MA at an infusion rate of 0.0073 mL/hr. Dosing of the animals was staggered over a 4-month period.
Prior to test article administration, all rats were subjected to a surgical procedure to produce a fluid percussion injury. Adult Sprague-Dawley rats (male, 350-500 g) are anesthetized with isoflurane anesthesia (1% isofluorane in 1 L/min O2) via face mask to effect for a small craniectomy (4.80 mm) and placement of a rigid Luer-loc needle hub (3 mm inside diameter). After luer lock hub placement, the hub is connected to the Cell Injury Controller through high pressure rubber tubing that delivers an fluid pulse to the dura. […] The righting reflex time after injury was recorded. […] Animals were monitored 3-4 times a day for the first 48 hr following surgery and daily thereafter for 14 days.

[14] = rats; cited from earlier work
[15] = system: male Wistar rats; assay: MCA embolic stroke in rats, modified neurological severity score / neurobehavioral outcomes
Text: Male Wistar rats at ages of 8-12 weeks, weighing 300-450 g were used in all experiments. A donor rat was anesthetized with 3.5% Isoflurane, and anesthesia was maintained with 1.0-1.5% Isoflurane in 70% N2O and 30% O2 using a face mask. […] Rats were then anesthetized with 3.5% Isoflurane, and anesthesia was maintained with 1.0-1.5% Isoflurane in 70% N2O and 30% O2 using a face mask throughout the surgical procedure. The animal's muzzle was placed in the face mask 2 cm from the surgical site. Rectal temperature was maintained at 37±″0.5° C. throughout the surgical procedure using an electric heating system. Under a surgical operating microscope) the right common carotid arteries (CCA), the right external carotid artery (ECA) and the internal carotid artery (ICA) were isolated via a 3 cm ventral neck midline incision. A 6-0 silk suture was loosely tied at the origin of the ECA and ligated at the distal end of the ECA. The right CCA and ICA was temporarily clamped using a curved microvascular clip (Codman & Shurtleff, Inc., Randolf, MAP, USA). A modified PE-50 catheter filled with a single clot (˜1 μl), was attached to a 100-μl Hamilton syringe, and introduced into the ECA lumen through a small puncture. The suture around the origin of the ECA was tightened around the intraluminal catheter to prevent bleeding, and the microvascular clip was removed. The catheter was gently advanced from the ECA into the lumen of the ICA. The clot along with 5 μl of saline in the catheter was injected into the ICA over 10 seconds. The catheter was withdrawn from the right ECA immediately after injection. The right ECA was ligated. The duration of the entire surgical procedure was approximately 25 min.
Implantation of osmotic pumps for the purpose of continuous IV infusion occurred at both 6 and 12 hours after delivery of the 4cm clot. Experimental control for the experiment was achieved by substituting methamphetamine for physiological saline. Briefly, at 6 or 12 hours post stroke animals were re-anesthetized using 1-3% isoflurane. After a state of anesthesia was achieved the right side groin area was shaved. After shaving, surgical tape was utilized to remove excess hair. The area was scrubbed with betadine and allowed to dry.
A small incision was made and the groin area was blunt dissected to expose the femoral vein. The femoral vein was separated with surgical tweezers and the distal end was permanently ligated using 6-0 silk thread. The proximal end was ligated and a 0.2 mm incision (approximate) was made in the femoral vein. A 2.5 cm length of polyvinyl tubing (OD 0.07mm) connected to a pre-loaded osmotic pump (Alzet Corp. model 2001D; 6.6 microliters per hour for 24 hrs) was inserted into the vein and gently pushed up towards midline of the body. The tubing was inserted until 0.5 cm was exposed from the vein. The tubing was tied around the vein in two locations using 6-0 silk spaced approximately 2 mm apart. A small pocket was blunt dissected along the groin/abdominal area. The osmotic pump was inserted into the area on the outer wall of the abdomen underneath the skin and sutured into the abdominal fascia using 4-0 synthetic suture. The incision was closed using 4-0 synthetic suture. At 48-72 hours after initial insertion the animal was anesthetized, the groin area was scrubbed with betadine, the incision was reopened, blunt dissected, and the pump exposed. The sutures holding the pump and tubing in place were cut, the pump removed, and the femoral vein was permanently ligated using 6-0 silk suture. The pump was discarded and the incision was closed using 4-0 synthetic suture.

[16] = 0.1 mg/kg/hr IV infusion 24 hrs, immediately after stroke
[17] = 1.0 mg/kg/hr IV infusion 24 hrs, started 6 hours after stroke
[18] = 1.0 mg/kg/hr IV infusion 24 hrs, started 6 hours after stroke, listed as MAP
[19] = 1.0 mg/kg/hr IV infusion 24 hrs, started 12 hours after stroke, listed as MAP
[20] = 0.5 and 1.0 mg/kg/hr IV infusion 24 hrs, immediately after stroke
[21] = 0.5 and 1.0 mg/kg/hr IV infusion 24 hrs, immediately after stroke, listed as MAP

Structure (SMILES): CN[C@@H](C)Cc1ccccc1 [methamphetamine]
- change in IL10 gene expression in hippocampus ([1]; 1 hour after single IP 1.0 mg/kg, vs saline): 445%
- IL10 expression in hippocampus vs saline ([1]; 6 hours after single IP 1.0 mg/kg): not significantly different from saline treated animals
- IL6 expression in hippocampus vs saline [2]: not significantly different from saline treated animals
- change in BcL2 gene expression in hippocampus [3]: +167%
- change in brain derived neurotrophic factor gene expression in hippocampus [4]: +141%
- change in neuropeptide Y gene expression in hippocampus [5]: +192%
- change in neurotrophic factor 3 gene expression in hippocampus [6]: +192%
- open field activity, SHAM+5 mg vs SHAM+0 mg ([7]; MAP 5 mg/kg i.p., 48 hrs after surgery): failed to significantly alter activity levels
- open field activity, ischemic vs sham gerbils both treated with MAP ([7]; MAP 5 mg/kg i.p., 48 hrs after surgery, listed as MAP): not significantly different; also recorded: comparable to control levels
- distance traveled in open field ([7]; ischemic gerbils, MAP 5 mg/kg i.p. within 2 min of reperfusion): 66.3 m
- distance traveled in open field ([7]; sham gerbils, MAP 5 mg/kg i.p.): 72.7 m
- histological rating score of hippocampal CA1 damage (0-3 scale) ([8]; ISCH+5 mg MAP group, 21 days after ischemic insult): 0.07±0.07
- damage to hippocampal CA1 following ischemic insult ([8]; 21 days): significantly reduced damage to the hippocampal CA1; also recorded: failed to exhibit any damage to the hippocampus
- damage to hippocampal CA1 following ischemic insult ([8]; 21 days, listed as MAP): prevented any significant loss of hippocampal CA1 pyramidal cells
- animals with any detectable neuronal pathology in the hippocampus ([8]; ischemic gerbils treated with MAP 5 mg/kg, 21 days): 1 of 7
- lethality in gerbils following surgery ([9]; doses greater than 5 mg/kg (10 and 20 mg/kg)): lethal
- clinical observation after treatment ([9]; gerbils, MAP 5 mg/kg i.p. after surgery): became piloerect with their tails pointing up
- infarct size / infarct volume at 7 days [10, 16]: No significant reductions in infarct volumes
- infarct size / infarct volume at 7 days ([10]; 0.1 mg/kg/hr IV infusion 24 hrs, immediately after stroke, listed as MAP): failed to decrease the infarct size
- infarct size / infarct volume at 7 days [10, 17]: significant reduction in infarct volumes; also recorded: significantly reduces infarct size
- infarct size / infarct volume at 7 days [10, 18]: significantly reduced infarct size
- infarct size / infarct volume at 7 days [10, 19]: still significantly reduces infarct size
- infarct size / infarct volume at 7 days [10, 20]: reduces brain damage (infarct size); also recorded: significant reduction in infarct volumes
- infarct size / infarct volume at 7 days [10, 21]: decreased infarct size
- infarct size / infarct volume at 7 days ([10]; 0.5 and 1.0 mg/kg/hr IV infusion 24 hrs, immediately after stroke, listed as Methamphetamine): decreases infarct size
- animals with substantial reduction in infarct volumes ([10]; infusion beginning 12 hours after stroke): Four out of the nine
- time to remove adhesive tape, day 7 vs day 1 [11, 16]: no significant change in the time to remove tape
- time to remove adhesive tape, day 7 vs day 1 ([11]; 1 mg/kg/hr started 6 hours after stroke): improvement in function was still observed
- time to remove adhesive tape, day 7 vs day 1 ([11]; 1 mg/kg/hr withheld until 12 hours after stroke (data not shown)): failed to produce an effect
- time to remove adhesive tape, day 7 vs day 1 ([11]; 0.5 or 1.0 mg/kg/hr IV infusion 24 hrs, immediately after stroke): required significantly less time to remove the tape
- foot fault values [12]: significant improvements in foot fault values
- tolerability [13]: well tolerated with no toxicity
- half-life [14]: approximately 1 hr
- neurobehavioral outcomes (neurological severity score) [15, 16]: improved neurobehavioral outcomes
- neurobehavioral outcomes (neurological severity score) [15, 17]: significant improvement in neurological severity scores; also recorded: significantly decreased neurobehavioral deficits
- neurobehavioral outcomes (neurological severity score) [15, 18]: improved neurobehavioral outcomes on all testing parameters
- neurobehavioral outcomes (neurological severity score) ([15]; 1.0 mg/kg/hr IV infusion 24 hrs, started 12 hours after stroke): significant improvement in neurological severity scores; also recorded: significantly decreased neurobehavioral deficits
- neurobehavioral outcomes (neurological severity score) [15, 19]: robust effect on neurobehavioral outcomes
- neurobehavioral outcomes (neurological severity score) [15, 20]: significant improvement in neurological severity scores
- neurobehavioral outcomes (neurological severity score) [15, 21]: improved neurobehavioral outcomes
